This note sets out measurements from ChEMBL document CHEMBL1141868, “Synthesis, biological activity, and X-ray crystal structural analysis of diaryl ether inhibitors of malarial enoyl acyl carrier protein reductase. Part 1: 4'-substituted triclosan derivatives” (Bioorg Med Chem Lett, 2005).

The subject of assay [1] is Plasmodium falciparum. Put plainly: Inhibition of drug-resistant Plasmodium falciparum Dd2 after 72 hrs. Format: functional, organism-based. The conditions noted are these: Dd2, 72 h.
For assay [2], the target named is T1, Enoyl-acyl-carrier protein reductase (Plasmodium falciparum, UniProt Q965D5).
T1 sequence (Q965D5 whole entry): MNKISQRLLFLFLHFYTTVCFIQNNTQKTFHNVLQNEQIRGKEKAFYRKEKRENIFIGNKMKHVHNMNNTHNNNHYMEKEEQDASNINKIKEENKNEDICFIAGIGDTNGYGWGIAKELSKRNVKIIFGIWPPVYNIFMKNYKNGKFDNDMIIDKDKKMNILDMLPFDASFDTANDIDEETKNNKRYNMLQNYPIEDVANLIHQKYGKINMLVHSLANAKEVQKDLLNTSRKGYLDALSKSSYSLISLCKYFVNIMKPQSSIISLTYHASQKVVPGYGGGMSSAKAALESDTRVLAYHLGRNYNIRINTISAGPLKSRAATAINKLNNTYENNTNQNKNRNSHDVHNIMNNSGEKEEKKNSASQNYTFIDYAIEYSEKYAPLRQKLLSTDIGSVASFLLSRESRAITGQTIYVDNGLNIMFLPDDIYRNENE
Kind of assay: Inhibition of PfENR enzymatic activity.

In assay [3] the test system is Plasmodium falciparum. Put plainly: Inhibition of drug-sensitive Plasmodium falciparum 3D7 after 72 hrs. In kind it is functional, organism-based. As to conditions: 3D7, 72 h.

The EC50 is the concentration that produces a half-maximal response. For orientation: IC50 means the concentration at which inhibition is half-maximal.

As to `N#Cc1ccc(Oc2ccc(Cl)cc2O)c(Cl)c1`, the EC50 in assay [1] is 5.4 µM; in assay [3], 3.9 µM. Further, in assay [2], half-maximal inhibition (IC50) required 0.12 µM.
In the same order, the values of `Oc1ccc(Oc2ccc(Cl)cc2O)c(Cl)c1` are 87.8 µM, 65.3 µM and 0.22 µM.
In the same order, the values of `O=[N+]([O-])c1ccc(Oc2ccc(Cl)cc2O)c(Cl)c1` are 3.2 µM, 2.1 µM and 0.18 µM.
In the same order, the values of `O=S(=O)(Nc1ccc(Oc2ccc(Cl)cc2O)c(Cl)c1)c1cccc2ccccc12` are 43.7 µM, 34.3 µM and 0.59 µM.
With `O=C(O)c1ccc(Oc2ccc(Cl)cc2O)c(Cl)c1`, the EC50 in assay [1] came out at 130 µM; in assay [3] it was 110 µM. The compound also had an IC50 in assay [2] of 0.55 µM.
Turning to `NC(=O)Nc1ccc(Oc2ccc(Cl)cc2O)c(Cl)c1`, the EC50 was 120 µM in assay [1] and 110 µM in assay [3]. 0.16 µM corresponded to half-maximal inhibition in assay [2] (IC50).
For `O=C(NCc1ccccc1)c1ccc(Oc2ccc(Cl)cc2O)c(Cl)c1` the same measures were 20.6 µM, 7.5 µM and 3 µM.
For `O=C(c1ccc(Oc2ccc(Cl)cc2O)c(Cl)c1)N1CCCC1` the same measures were 42.6 µM, 20.7 µM and 0.81 µM.
Take `O=S(=O)(Nc1ccc(Oc2ccc(Cl)cc2O)c(Cl)c1)c1ccc2ccccc2c1`: the EC50 in assay [1] is 33.9 µM; in assay [3] it was 23.5 µM. In assay [2], this compound gave an IC50 of 2.5 µM.
For `O=S(=O)(Nc1ccc(Oc2ccc(Cl)cc2O)c(Cl)c1)c1ccccc1` the same measures were 77.5 µM, 55.1 µM and 0.37 µM.
In the same order, the values of `Nc1ccc(Oc2ccc(Cl)cc2O)c(Cl)c1` are 140 µM, 120 µM and 0.36 µM.
Turning to `O=S(=O)(Nc1ccc(Oc2ccc(Cl)cc2O)c(Cl)c1)C(F)(F)F`, the EC50 in assay [1] and in assay [3] was above 120 µM throughout. In assay [2], this compound registered an IC50 of 0.14 µM.
For `CN(C)C(=O)c1ccc(Oc2ccc(Cl)cc2O)c(Cl)c1`, the 50% effective concentration (EC50) in assay [1] was 95.7 µM; in assay [3], 68.4 µM. The same compound came in with an IC50 in assay [2] of 0.46 µM.
For the compound `Oc1cc(Cl)ccc1Oc1ccc(Cl)cc1Cl` [TRICLOSAN], the EC50 in assay [1] stood at 3.9 µM; in assay [3], 2.9 µM. This compound showed an IC50 in assay [2] of 0.073 µM.
With `NC(=O)c1ccc(Oc2ccc(Cl)cc2O)c(Cl)c1`, the EC50 in assay [1] amounted to 100 µM; in assay [3], 96.3 µM. In assay [2], this compound had an IC50 of 0.12 µM.
In the same order, the values of `O=C(c1ccc(Oc2ccc(Cl)cc2O)c(Cl)c1)N1CCCCC1` are 18 µM, 11.7 µM and 0.68 µM.
In the same order, the values of `O=C(Nc1ccc(Oc2ccc(Cl)cc2O)c(Cl)c1)c1ccccc1` are 83.9 µM, 57.2 µM and 0.17 µM.
On to `N#CCc1ccc(Oc2ccc(Cl)cc2O)c(Cl)c1`, for which the EC50 was 36.4 µM in assay [1] and 23.1 µM in assay [3]. Moreover, the IC50 in assay [2] came to 0.19 µM.
For `CNC(=O)c1ccc(Oc2ccc(Cl)cc2O)c(Cl)c1` the same measures were 100 µM, 77.8 µM and 0.31 µM.
`N#Cc1ccccc1CNc1ccc(Oc2ccc(Cl)cc2O)c(Cl)c1`: the EC50 in assay [1] was found to be 45.4 µM; in assay [3], 26.7 µM. In addition, the IC50 in assay [2] was 0.56 µM.
With `Oc1cc(Cl)ccc1Oc1ccc(-c2nn[nH]n2)cc1Cl`, the EC50 was above 150 µM in assay [1] and 120 µM in assay [3]. In assay [2], the IC50 was 0.413 µM.
For `O=C(NO)c1ccc(Oc2ccc(Cl)cc2O)c(Cl)c1`, the values for the EC50 in assay [1] and in assay [3] were 30.6 µM and 31.2 µM, respectively. The compound also displayed a 50% inhibitory concentration (IC50) in assay [2] of 1.2 µM.
For `Oc1cc(Cl)ccc1Oc1ccc(NCc2ccccc2)cc1Cl`, the figures for the EC50 in assay [1] and in assay [3] were 47.5 µM and 35.8 µM, respectively. In assay [2], this compound returned an IC50 of 0.14 µM.
Consider `O=C(Nc1ccc(Oc2ccc(Cl)cc2O)c(Cl)c1)N1CCOCC1`, for which the EC50 came to 86.4 µM in assay [1] and 66.8 µM in assay [3]. This compound yielded an IC50 in assay [2] of 0.25 µM.
In the same order, the values of `O=C(c1ccc(Oc2ccc(Cl)cc2O)c(Cl)c1)N1CCOCC1` are 94.5 µM, 63.5 µM and 0.2 µM.
For `CC(=O)Nc1ccc(Oc2ccc(Cl)cc2O)c(Cl)c1` the same measures were 50.9 µM, 52.2 µM and 0.057 µM.
Consider `Oc1ccccc1CNc1ccc(Oc2ccc(Cl)cc2O)c(Cl)c1`, for which the EC50 in assay [1] came out at 5.6 µM; in assay [3], 4.5 µM. This compound also showed a 50% inhibitory concentration (IC50) in assay [2] of 0.32 µM.
